Series [1] relates to Gram-negative cells (E. coli, A. baumannii and K. pneumoniae). The experiment in a line: Helium ion microscopy (HIM) of treated bacteria. The series is classed as cell-based. Particulars: 90 min incubation. On the procedure:
The morphologies of bacterial strains methicillin-sensitive S. aureus (MSSA) ATCC 29213, E. faecalis ATCC 29212, E. coli ATCC 25922, A. baumannii 2208 ATCC19606 and K. pneumoniae ATCC 13883 after treatment with Se NPs, Se NP-ε-PL or pure ε-PL were observed using Helium Ion Microscopy (HIM, Zeiss, Germany). The samples were prepared in the following steps. First, 100 μL of 125 μg/mL Se NPs, Se NP-ε-PL or pure ε-PL in PBS solution was added to each well of 96-well microplates, 100 μL pure PBS was used as untreated control. Afterwards, 100 μL MHB with 1.25×10^7/mL bacteria was added to each well. After 90 min incubation, 10 μL of both treated and untreated bacteria was dropped on clean silicon wafers, and they were then dried at 37° C. for 20 min. The dried samples were transferred to a 12-well plate, 2.5% glutaraldehyde was added to each well to fix the bacteria cells for 1 h, then gradient ethanol solution (30%, 50%, 60%, 70%, 80%, 90%, 95% and 100%) was used for dehydration. The prepared samples were dried in the fume hood overnight before use.

Series [2] has as its system Pseudomonas aeruginosa (P. aeruginosa) strain PAO1-LAC ATCC 47085. The experiment in a line: CFU measuring assay / MBC calculation. The format is cell-based. As to conditions: 90 min at 37° C., linear regression, mean ± s.d. Here is the method: (§1) For the CFU measuring assay, 50 μL of different concentrations of Se NPs, Se NP-ε-PL or pure ε-PL in PBS solution was added into each well of 96-well microplates, then 50 μL MHB with 2.5×10^6 cells/mL bacteria were added into each well. After incubating the microplate at 37° C. for 90 min, the bacterial solutions were diluted 10^−1, 10^−2, 10^−3 and 10^−4 times, then 10 μL of each dilution was transferred onto agar plates with MHB. The agar plates were incubated overnight, before the bacterial colony forming units were observed and measured.
(§2) Concentration-killing curves were plotted with CFUs/mL as a function of antibacterial agent concentration, and linear regression analysis was used to determine the lowest concentration (MBC) at which the CFU/mL becomes zero.

Series [3] concerns Enterococcus faecalis (E. faecalis) ATCC 29212. The experiment in a line: CFU measuring assay / MBC calculation. Particulars: 90 min at 37° C., linear regression, mean ± s.d. The format is cell-based. On the procedure: as §1, §2
Series [4] deals with Escherichia coli (E. coli) ATCC 25922. The experiment in a line: CFU measuring assay / MBC calculation. Particulars: 90 min at 37° C., linear regression, mean ± s.d. The series is classed as cell-based. On the procedure: as §1, §2
The subject of series [5] is methicillin-sensitive Staphylococcus aureus (S. aureus) ATCC 29213. The experiment in a line: CFU measuring assay / MBC calculation. The series is classed as cell-based. As to conditions: 90 min at 37° C., linear regression, mean ± s.d. Here is the method: as §1, §2
The subject of series [6] is Klebsiella pneumoniae (K. pneumoniae) ATCC 13883. The experiment in a line: CFU measuring assay / MBC calculation. The format is cell-based. As to conditions: 90 min at 37° C., linear regression, mean ± s.d. Here is the method:
as §1, §2

Series [7] deals with methicillin-resistant Staphylococcus aureus (MRSA) ATCC 43300. The experiment in a line: CFU measuring assay / MBC calculation. The format is cell-based. Particulars: 90 min at 37° C., linear regression, mean ± s.d. Here is the method: as §1, §2
For series [8], the system named is Acinetobacter baumannii (A. baumannii) 2208 ATCC19606. The experiment in a line: CFU measuring assay / MBC calculation. The format is cell-based. Particulars: 90 min at 37° C., linear regression, mean ± s.d. Here is the method: as §1, §2
For the next series, the system named is E. coli ATCC 25922. The experiment in a line: Adenosine triphosphate (ATP) test (BacTiter-Glo). The series is classed as cell-based, Escherichia coli. As to conditions: 1 h at 37° C. On the procedure: The bacterial strains methicillin-sensitive S. aureus ATCC 29213, E. faecalis ATCC 29212, E. coli ATCC 25922 and K. pneumoniae ATCC 13883 were cultured in MHB at 37° C. 50 μL of Se NPs, Se NP-ε-PL or pure ε-PL in PBS solution was added into each well of 96-well microplates. 50 μL MHB with 2.5×10^6 cells/mL bacteria was then added into each well. After 1h incubation at 37° C., the 96-well microplates were transferred to room temperature for a further 30 min incubation period. 100 μL of BacTiter-Glo™ reagent (Promega, Australia) was added into each well, then mixed on an orbital shaker and incubated for 5 min. The luminescence was recorded using a microplate reader (PerkinElmer 1420 Multilabel Counter VICTOR3).
A standard curve was generated by adopting the following steps. 10-fold serial dilutions of ATP from 1 μM to 10 pM in 100 μL MHB were prepared. 100 μL of BacTiter-Glo™ reagent was added into each well, then mixed on an orbital shaker and incubated for 1 min. The luminescence was recorded using a microplate reader (PerkinElmer 1420 Multilabel Counter VICTOR3).

In series [9] the test system is methicillin-sensitive S. aureus (MSSA) ATCC 29213. The experiment in a line: Membrane potential change test (BacLight, DiOC2(3)). As to conditions: 6.25 or 12.5 μg/ml. The format is cell-based, Staphylococcus aureus. On the procedure: Membrane potential change was measured using a BacLight Bacterial Membrane Potential Kit (Invitrogen). The bacterial strain methicillin-sensitive S. aureus (MSSA) ATCC 29213, E. faecalis ATCC 29212, E. coli ATCC 25922 were cultured in MHB at 37° C. 50 μL of different concentrations of Se NPs, Se NP-ε-PL or pure ε-PL in PBS solution was added into each well of 96-well microplates. 50 μL MHB with 2.5×10^6 cells/mL bacteria was then added into each well. 50 μL MHB with 2.5×10^6 cells/mL bacteria was added to 50 μL PBS to act as untreated control. Carbonyl cyanide 3-chlorophenylhydrazone (CCCP) was added to untreated control at a final concentration of 5 μM to act as fully depolarized control. 3,3′-Diethyloxacarbocyanine Iodide (DiOC2(3)) was added to all wells at a final concentration of […]. […] The untreated (polarized) and CCCP-treated (fully depolarized) controls were used to determine the percentage of depolarized cells. Two independent experiments were done for this test, and two technical replicates were adopted for each independent experiment.

Series [10] deals with human dermal fibroblast cells (HDF). The experiment in a line: Lactate Dehydrogenase (LDH) release assay. The series is classed as cell-based. Particulars: concentration of up to 50 μg/mL, 6 h. Here is the method: LDH is released from cells into the medium when cell lysis occurs. The amount of LDH released to the medium was measured using the Cyto Tox 96® nonradioactive assay (Promega, Madison, Wis., USA) following the manufacturer's instructions. The HDF cells were cultured in a 96-well microplate for 24 h, before the old medium was replaced with DMEM with including either Se NPs, Se NP-ε-PL or pure ε-PL. Pure DMEM was used as negative control. The microplate was put back into the incubator for 6 h. For the maximum LDH release control, HDF cells were lysed using 1× lysis solution for 45 minutes before adding Cyto Tox 96 reagent. Cyto Tox 96 reagent was then added to the wells and the microplate was incubated for a further 30 minutes. The reaction was then stopped by adding stop solution. A microplate reader (M200 PRO, Tecan) was utilized to test absorbance at 490 nm. The cytotoxicity (Y) was calculated using the following formula: […]
OD3 represents the mean absorbance of experimental groups, and OD4 represents the mean absorbance of the maximum LDH release control group. All absorbance values are after subtraction of the culture medium background values.

In the case of ε-poly-L-lysine [ε-PL], the “cell morphology after treatment (HIM)” value in series [1] was “membranes of E. coli, A. baumannii and K. pneumoniae cells were disrupted”. Further, the MBC – broadly, the lowest tested concentration that kills the bacteria rather than only halting them – in [2] was 25.0 ± 0.1 µg/mL; in series [3] it was 134 ± 10 µg/mL; in [4], 24.3 ± 1.2 µg/mL; in [5], 50.6 ± 3.5 µg/mL; in series [6] it was 12.9 ± 0.4 µg/mL; in series [7], 149 ± 37 µg/mL. Moreover, the MBC in series [8] was 50.0 ± 0.2 µg/mL. Also, the ATP depletion entry in the series with E. coli ATCC 25922 is “higher ATP depletion effect than Se NPs”. Moreover, the “depolarisation of cell membrane” value in [9] was “depolarized cell membranes”. Besides, the “LDH released from HDF cells compared with untreated control” value in series [10] is “no significant difference to the untreated control”.

The record behind these values is patent US20220339187A1, “ANTIMICROBIAL PEPTIDE-SELENIUM NANOPARTICLES” (The University of Melbourne, priority 2019, published 2022).
